Here are results for three compounds from patent US20030027722A1, “Influencing the activity of plant growth regulators” (priority 1998, published 2003).

In experiment [1] the test system is apple and rose. Nature of the experiment: root induction in apple and rose. Format: in vivo. From the text:
It is also possible to offer a hormone precursor, which is converted into an active hormone by metabolic processes. Indole-3-hexanoic acid (I-H-A) is converted by two beta-oxidation steps (the enzymes therefor are present in the plant) into the auxin indole-3-acetic acid (I-A-A). I-H-A is thus a special form of a slow-release source.

For experiment [2], the system named is tissue explants of rose. Nature of the experiment: shoot formation on tissue explants of rose. The class given is cell-based. On the procedure: It was also observed that tissue explants of rose when treated with IBA (normal addition) or IHA, respectively, formed about 50 times more shoots (2 shoots versus 100 per 20 tissue explants) in the latter case.
In the studies for new applications of PGRs and/or elicitors, which were performed within the framework of the present invention, several new and unexpected observations were made. […] Furthermore, the inventors established that elicitors do cause a statistically significant growth retardation of all tissues, as can be illustrated for rose shoots. This effect was enhanced by PGR(s), in casu antigibberelins, i.e. paclobutrasol. […] Finally the observation was made that when tissue explants of rose were treated with respectively IBA (normal addition) or IHA, in the last case about 50 times more shoots were formed (2 shoots versus 100 per 20 tissue explants).

The test system of experiment [3] is rose. Nature of the experiment: rooting powder comparison, rooting and development of scions, rose. The class given is in vivo. Also on record: key: 1: The compounds with the best relative overall effect on rooting and development were placed in category I; categories which ranged from 1 to 6. An excerpt:
(§1) d) In Table 2 standard indol butyric acid (IBA), which is the active component in most currently used rooting powders, is compared with indol hexanolic acid (IHA) and two BSA adducts, both—coupled, namely IBA and indole acetic acid (BSA-N-IAA). The effect on rooting and the plant development (stem growth, outgrowth of new shoots, synchronicity of growth of a population of plants) were inter alia factors determining the place in the categories which ranged from 1 to 6. The compounds with the best relative overall effect on rooting and development were placed in category I. Rooting and subsequent development of scions for different types of herbaceous and woody plants differs largely for those types of plants. A rose cultivar, “enermus stur cinq”, was used as an example of a recalcitrant woody plant. The chrysanthemum species “regan” is an example of an easy to root herbaceous plant.

For experiment [4], the system named is chrysanthemum. Nature of the experiment: rooting powder comparison, rooting and development of scions, chrysanthemum. The arrangement: key: 1: The compounds with the best relative overall effect on rooting and development were placed in category I; categories which ranged from 1 to 6. Format: in vivo.
Excerpt: as §1

The subject of experiment [5] is carnation. Kind of experiment: rooting powder comparison, rooting and development of scions, carnation. The class given is in vivo. Also on record: key: 1: The compounds with the best relative overall effect on rooting and development were placed in category I; categories which ranged from 1 to 6.
Excerpt: as §1

For experiment [6], the system named is rose, chrysanthemum, carnation. Kind of experiment: rooting powder comparison, average over species. Format: in vivo.
Excerpt: as §1

The subject of experiment [7] is Brassica napens. Nature of the experiment: microspore embryogenesis. The class given is cell-based. The note with it: in combination with colchicine.
In experiment [8] the test system is apple stalk slices. Nature of the experiment: rooting regeneration on apple stalk slices with elicitors. The class given is cell-based. The procedure:
The effect of the elicitors on rooting regeneration on apple stalk slices was studied. The stalk slices were incubated on medium with elicitors in combination with a sub-optimal auxin concentration (1 μM indolebutyric acid or 1 μM indoleacetic acid) which were added for 1 or 3 days to the plant tissue for testing. The increase was measured in the number of regenerated roots compared to the auxin control.

In experiment [9] the test system is saintpaulia. Kind of experiment: shoot regeneration in saintpaulia. The class given is cell-based. The note with it: elicitor 10^−10 M. The procedure:
(§2) The elicitor uridine was tested on shoot regeneration in saintpaulia, lateral root formation in pea, cell division in tobacco and root induction in larkspur and apple.

Experiment [10] relates to pea. Kind of experiment: lateral root formation in pea. The class given is in vivo. The note with it: elicitor 10^−8 to 10^−16 M. The procedure:
as §2

Experiment [11] concerns tobacco. Kind of experiment: cell division in tobacco. Format: cell-based. The note with it: elicitor 10^−10 M. The procedure: as §2
Experiment [12] deals with larkspur. Nature of the experiment: root induction in larkspur. The note with it: root formation larkspur, elicitor 10^−10 M. The class given is in vivo. The procedure: as §2

Molecules are shown by their SMILES.

Take `O=C(O)CCCCCc1c[nH]c2ccccc12` [IHA, Indole-3-hexanoic acid]: the “activity in root induction relative to I-A-A” value in experiment [1] is listed as “thirty times more active than I-A-A”. In experiment [2], the shoots formed is 100 shoots per 20 tissue explants. In experiment [2], the “times more shoots than with IBA” value is on record as “about 50”. In addition, the “category of relative overall effect on rooting and plant development” value in experiment [3] (rose enermus stur cinq (recalcitrant woody plant)) is reported as 1; in experiment [3] (rose n. brier), 1; in [4] (chrys. regan (easy to root herbaceous plant)), 2; in experiment [4] (chrys. snowdon), 1; in [5] (carnation m. brilj.), 1; in [5] (carnation tempo) it was 2. This compound registered an average category in [6] (average over the species tested) of 1.33. The “overall assessment of rooting powders from Table 2” value in [6] (in vivo) was “very generally applicable and very effective”.
In the case of `CCCCCCCCC(=O)O` [nonanoic acid], in experiment [7], the “increase in microspore embryogenesis” value came out at 125%. In addition, the “increased regeneration in relation to control (auxin alone)” value in experiment [8] (elicitor 0.1-1 μM, roots, apple, 1 μM indolebutyric or indoleacetic acid, 1 or 3 days) is listed as 300%.
For `O=c1ccn([C@@H]2O[C@H](CO)[C@@H](O)[C@H]2O)c(=O)[nH]1` [uridine], the “increased regeneration in relation to control (auxin alone)” value in [8] (elicitor 10^−10 M, apple stalk slices) was determined as 75%; in experiment [9] it was 100%; in experiment [10], 100%; in experiment [11] it was 75%; in experiment [12], 50%.
